Test results: article PMC3261944, “The in Vitro Estrogenic Activities of Polyfluorinated Iodine Alkanes” (Environmental Health Perspectives, 2011)
Where two headings read alike, the source gives them in different places.

Tests used:
EGR3 = test: Expression of estrogen-responsive gene EGR3 (quantitative RT-PCR); assay type: cell-based, Human; conditions: MCF-7 cells, 48 hr, vs 0.1% ethanol; 50 μM PFBI, PFHxI, PFOI, PFBDI, PFOA, PFOC, PFOB, 1-iodohexane, 4:2 FTI, 6:2 FTI; 40 μM PFDI, PFDoI, PFODI, 8:2 FTI, 10:2 FTI; 20 μM PFHxDI; 100 pM E2
Method: RNA isolation and reverse transcription polymerase chain reaction (RT-PCR). MCF-7BUS cells were seeded in six-well plates at the density of 1.0 × 10^6 cells per well, starved in SF medium for 48 hr, and exposed to test compounds for 48 hr. First, cells were rinsed twice with cold phosphate-buffered saline, and total RNA was isolated using Trizol reagent (Invitrogen Inc., Carlsbad, CA, USA) following the manufacturer’s protocol. The 260 nm and 280 nm absorbance reading of total RNA was performed using a Nanodrop spectrophotometer (Thermo Scientific, Waltham, MA, USA). The concentration of RNA was quantified by the reading at 260 nm.
We used a two-step quantitative RT-PCR to quantify gene expression. Total RNA was converted to cDNA using M-MLV (Moloney murine leukemia virus) reverse transcriptase (Promega, Madison, WI, USA) with oligo dT(15), following the manufacturer’s instructions. The final cDNA solution was diluted five times with DNase/RNase-free water (Gibco). Quantitative PCR was performed with a Stratagene MX3005 thermal cycler (Stratagene, La Jolla, CA, USA). PCR reaction mixtures (25 μL) contained 12.5 μL GoTaq Green Master Mix (Promega), 2 μL diluted cDNA, and 0.2 μM sense/antisense primers. The thermal cycle was 5 min at 95°C, followed by 45 cycles of 15 sec at 95°C, 30 sec at 55°C, and 30 sec at 72°C. The primer sequences of early growth response protein 3 (EGR3) were derived from [Terasaka et al. (2004)]. We designed the primers of internal gene β-actin and trefoil factor 1 (TFF1; pS2) with Primer Premier 5 software (Premier Biosoft International, Palo Alto, CA, USA). The primer sequences were as follows: for β-actin (NM_001101), 5´-CACTCT[…]TCCTTCC-3´ (forward) and 5´-[…][…]-3´ (reverse); for EGR3 (NM_004430), 5´-CCATGATTC[…]-3´ (forward) and 5´-GTGGATCTGCTTGTCTTTGAATG-3´ (reverse); and for TFF1 (NM_003225), 5´-AGAAGCG […]-3´ (forward) and 5´-[…][…]-3´ (reverse). The quantification of target gene expression was based on a comparative cycle threshold (Ct) value. We normalized the expression level of each target gene to its reference gene β-actin. The fold change of the target genes was analyzed by the 2^−ΔΔCt method ([Livak and Schmittgen 2001]). We used melting curve analysis and agarose gel electrophoresis to verify the correct PCR products.

MCF-7BUS cells = test: E-screen assay (MCF-7BUS cell proliferation, WST-1); assay type: cell-based, Human; conditions: for EC50: Homo sapiens, MCF7/BUS, 144 h, read-out: E-screen EC50; for E-screen Maximum induction (%): percentage of the maximum proliferation effect of tested compound to that of E2, 6 days exposure; for E-screen Relative potency: ratio of EC50 of E2 to that of test compound; for Proliferation / estrogenic effect in the E-screen assay (in words): within the tested concentration ranges
Method: (§1) Cell culture. Human MCF-7BUS breast adenocarcinoma cells and MVLN cells were cultured in 100-mm culture dishes in a humidified atmosphere of 5% CO2 at 37°C. Cells were maintained in Dulbecco’s modified Eagle’s medium (DMEM)/F-12 (Hyclone, Logan, UT, USA) containing 10% fetal bovine serum, 100 U/mL streptomycin-penicillin, 2 mM L-glutamine, and 1% insulin-transferrin-selenium supplement (all from Gibco, Grand Island, NY, USA).
E-screen assay. MCF-7BUS cells were kindly provided by A.M. Soto and C. Sonnenschein (Tufts University School of Medicine, Boston, MA, USA). In response to ERα agonists, the mitotic effect leads to the proliferation of MCF-7BUS cells. […] Cells were trypsinized and plated into the interior 60 wells of 96-well plates at the density of 3,000 cells/well. Before each experiment, cells were starved in steroid-free (SF) medium for 48 hr to minimize the basal hormonal activity during assays. SF medium consisted of phenol red–free DMEM/F-12 (Hyclone) supplemented with 5% dextran-charcoal-treated fetal bovine serum (Hyclone), 100 U/mL streptomycin-penicillin, and 2 mM L-glutamine. […] We used a WST-1 proliferation kit (Roche Diagnostics, Mannheim, Germany) to assess proliferation after 6 days of exposure according to the kit instructions. The WST-1 assay is based on the enzymatic cleavage of the tetrazolium salt WST-1 to formazan by cellular mitochondrial dehydrogenases present in viable cells. The absorbance of the WST-1 solution was detected by a microplate reader (Varioskan Flash, Thermo Fisher Scientific, Waltham, MA, USA) at 450 nm, with the reference wave length at 690 nm. The cell proliferation effect was calculated from the solvent control (0.1% ethanol)-corrected absorbance and expressed as the percentage of maximal absorbance of the positive control. Three replicates were used in each experiment.
(§2) The concentration–response analyses were performed with four-parameter logistic curve regression analysis according to the following formula:
(§3) y = minimum + (maximum – minimum) ÷ [1 + (x/EC50)^Hill slope], [1]
(§4) where y is the response value, x is the log concentration of the test compound, and EC50 is the concentration that induces half of the maximum proliferation effect or luciferase activity.
EC50 values were calculated from this nonlinear regression model. EC20 were calculated as […]

ER = biological target: T1, ER (Homo sapiens, UniProt P03372); test: MVLN assay (estrogen-responsive luciferase reporter transactivation); assay type: cell-based; conditions: for Luciferase activity on coexposure with OHT: OHT 10 nM coexposed with 100 μM PFHxI, 100 μM PFOI, 100 μM PFBDI, 20 μM PFHxDI or 40 μM PFODI; for MVLN assay Relative potency: footnote: ratio of EC50 of E2 to that of test compound, text: based on EC20; for MVLN assay EC20: luciferase activity, 2 days, from Hill slope and EC50; for MVLN assay Maximum induction (%): percentage of the maximum induction (luciferase) of tested compound to that of E2, 2 days exposure; for Luciferase induction / estrogenic effect in the MVLN assay (in words): within the tested concentration ranges
T1 construct: This cell line was stably transfected with the luciferase reporter gene and estrogen-responsive element derived from the Xenopus vitellogenin A2 gene; endogenous in cells; host or cells: MVLN cells (provided by J.P. Giesy)
T1 sequence (P03372 1-595): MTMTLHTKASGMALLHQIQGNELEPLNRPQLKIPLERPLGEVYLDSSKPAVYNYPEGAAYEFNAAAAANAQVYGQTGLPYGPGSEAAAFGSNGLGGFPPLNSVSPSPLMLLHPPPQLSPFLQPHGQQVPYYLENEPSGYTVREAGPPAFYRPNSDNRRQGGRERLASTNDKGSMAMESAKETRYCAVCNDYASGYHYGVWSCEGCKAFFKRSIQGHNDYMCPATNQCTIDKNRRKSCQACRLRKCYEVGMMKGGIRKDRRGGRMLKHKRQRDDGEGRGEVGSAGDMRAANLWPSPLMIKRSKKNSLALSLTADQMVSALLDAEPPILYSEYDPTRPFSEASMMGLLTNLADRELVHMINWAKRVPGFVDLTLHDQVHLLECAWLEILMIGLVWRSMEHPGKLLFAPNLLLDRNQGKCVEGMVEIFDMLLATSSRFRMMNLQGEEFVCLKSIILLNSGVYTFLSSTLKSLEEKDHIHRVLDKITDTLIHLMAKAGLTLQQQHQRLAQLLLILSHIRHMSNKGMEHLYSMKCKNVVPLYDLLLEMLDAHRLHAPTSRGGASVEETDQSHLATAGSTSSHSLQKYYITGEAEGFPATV
Method: as §1
MVLN assay. The MVLN cell line was kindly provided by J.P. Giesy (Michigan State University, East Lansing, MI, USA). This cell line was stably transfected with the luciferase reporter gene and estrogen-responsive element derived from the Xenopus vitellogenin A2 gene. […] Cells were seeded in the interior 60 wells of a 96-well ViewPlate (Packard Instrument Company, Boston, MA, USA) at a density of 7 × 10^4 cells/well, starved in SF medium for 48 hr, and exposed to test compounds for 2 days. […] Luciferase activity was measured with the LucLite kit (Packard Instruments) according to the manufacturer’s protocol. We measured luminescence by microplate reader (Varioskan Flash) and integrated the luminescence signal for 10 sec. Total protein content was measured by the Bradford assay (Tiangen, Beijing, China) to normalize luminescent units. The results are given as relative luminescent unit per microgram protein. The maximal induction of positive control (corrected for solvent control, 0.1–0.2% ethanol) was set as 100%, and the responses of other chemicals were converted to a percentage of the maximum level. Three replicates were used in each experiment. The cytotoxicity of tested chemicals was examined by WST-1 kit in parallel and routinely observed under microscope to identify the exposure concentration range.
as §2, §3, §4
EC50 values were calculated from this nonlinear regression model. EC20 were calculated as
ECx = [x/(100 – x)]^(1/Hill slope) × EC50, [2]

EC50 (MCF-7BUS cells; MCF-7BUS proliferation, 6 days) [nM]	SMILES	EGR3 mRNA expression, fold up-regulation (EGR3) [fold]	EC50 (MCF-7BUS cells) [nM]	E-screen Maximum induction (%) (MCF-7BUS cells)	E-screen Relative potency (MCF-7BUS cells)	EC50 (ER) [nM]	Luciferase activity on coexposure with OHT (ER)	MVLN assay Relative potency (ER)	MVLN assay EC20 (ER) [nM]	MVLN assay Maximum induction (%) (ER)	Proliferation / estrogenic effect in the E-screen assay (in words) (MCF-7BUS cells)	Luciferase induction / estrogenic effect in the MVLN assay (in words) (ER)
–	FC(F)(I)C(F)(F)C(F)(F)C(F)(F)C(F)(F)C(F)(F)I [PFHxDI, Dodecafluoro-1,6-diiodohexane]	9.1	7.5	100%	4.2 × 10^–4	1130	marked reduction of luciferase activity	1.1 × 10^–5	380	73%	–	–
–	FC(F)(F)C(F)(F)C(F)(F)C(F)(F)C(F)(F)C(F)(F)CCI [6:2 FTI, 1H,1H,2H,2H-perfluorooctyl iodide]	–	–	NDd (The maximum relative proliferation effect was < 7%)	–	–	–	–	–	NDe (The maximum relative luciferase activity was < 5%)	–	–
–	FC(F)(F)C(F)(F)C(F)(F)C(F)(F)C(F)(F)C(F)(F)C(F)(F)C(F)(F)CCI [8:2 FTI, 1H,1H,2H,2H-perfluorodecyl iodide]	–	–	NDd (The maximum relative proliferation effect was < 7%)	–	–	–	–	–	NDe (The maximum relative luciferase activity was < 5%)	–	–
0.00312	C[C@]12CC[C@@H]3c4ccc(O)cc4CC[C@H]3[C@@H]1CC[C@@H]2O [E2, 17β-estradiol, reference compound]	–	–	100%	–	–	–	–	–	–	–	–
–	FC(F)(I)C(F)(F)C(F)(F)C(F)(F)C(F)(F)C(F)(F)C(F)(F)C(F)(F)I [PFODI, Hexadecafluoro-1,8-diiodooctane]	11.2	43.3	105%	7.2 × 10^–5	2870	marked reduction of luciferase activity	3.8 × 10^–6	1070	38%	–	–
–	FC(F)(F)C(F)(F)C(F)(F)C(F)(F)C(F)(F)C(F)(F)I [PFHxI, 1-iodoperfluorohexane]	2.4	630	99%	4.9 × 10^–6	26700	marked reduction of luciferase activity	0.29 × 10^–6	14100	47%	produced full concentration–response curves	induced luciferase activity in a dose-related manner
–	FC(F)(F)C(F)(F)C(F)(F)C(F)(F)C(F)(F)C(F)(F)C(F)(F)C(F)(F)I [PFOI, 1-iodoperfluorooctane]	3.6	1150	101%	2.7 × 10^–6	35100	marked reduction of luciferase activity	0.2 × 10^–6	20400	25%	produced full concentration–response curves	induced luciferase activity in a dose-related manner
–	FC(F)(F)C(F)(F)C(F)(F)C(F)(F)C(F)(F)C(F)(F)C(F)(F)C(F)(F)C(F)(F)C(F)(F)CCI [10:2 FTI, 1H,1H,2H,2H-perfluorododecyl iodide]	–	–	NDd (The maximum relative proliferation effect was < 7%)	–	–	–	–	–	NDe (The maximum relative luciferase activity was < 5%)	–	–
–	FC(F)(I)C(F)(F)C(F)(F)C(F)(F)I [PFBDI, Octafluoro-1,4-diiodobutane]	2.4	1450	97%	2.2 × 10^–6	29600	marked reduction of luciferase activity	0.3 × 10^–6	13800	21%	–	–
–	FC(F)(F)C(F)(F)C(F)(F)C(F)(F)CCI [4:2 FTI, 1H,1H,2H,2H-perfluorohexyl iodide]	–	–	NDd (The maximum relative proliferation effect was < 7%)	–	–	–	–	–	NDe (The maximum relative luciferase activity was < 5%)	–	–
